Test results taken from patent US8940800B2, “Pharmaceutical compositions with enhanced performance” (Bend Research, Inc., priority 2004, dated 2015).
Where “and” joins values, the source holds several entries; their conditions need not be identical. Identical values can stand only once.

Assays:
[1] = In vitro dissolution test, microcentrifuge method, PBS (Example 1); assay type: physicochemical; conditions: PBS pH 6.5, 37° C.; for AUC90: 90 minutes; for C1200: concentration at 1200 minutes; for MDC,90: maximum concentration during first 90 minutes
Experimental: Dispersions 2, 3, 4, and 10 were evaluated in in vitro dissolution tests using a microcentrifuge method. In this method, 3.6 mg of the spray-dried dispersions was added to a 2-mL microcentrifuge tube. The tube was placed in a 37° C. sonicating bath, and 1.8 mL of phosphate-buffered saline (PBS) at pH 6.5 and 290 mOsm/kg was added. The samples were quickly mixed using a vortex mixer for about 90 seconds. The theoretical maximum concentration of drug if all the drug dissolved was 1000 μg/mL. The samples were centrifuged at 13,000 G at 37° C. for 1 minute. The resulting supernatant solution was then sampled (100 μL) and diluted with 200 μL methanol and then analyzed by HPLC. The tubes were then mixed on the vortex mixer and allowed to stand undisturbed at 37° C. until the next sample. Samples were collected at 4, 10, 20, 40, 90, and 1200 minutes.
As controls, in vitro tests were performed using the procedure described above, except that 0.18 mg of crystalline drug was placed in a microcentrifuge tube and mixed with 1.8 mL of PBS.

[2] = In vitro membrane permeation test, Drug 1 (Example 6); assay type: physicochemical; conditions: 37° C.
Experimental: Dispersion 14 was evaluated in vitro using a membrane permeation test as follows. An Accurel® PP 1E microporous polypropylene membrane was obtained from Membrana GmbH (Wuppertal, Germany). The membrane was washed in isopropyl alcohol and rinsed in methanol in a sonicating bath for 1 minute at ambient temperature, and then allowed to air dry at ambient temperature. The feed side of the membrane was then plasma-treated to render it hydrophilic by placing a sample of the membrane in a plasma chamber. The atmosphere of the plasma chamber was saturated with water vapor at a pressure of 550 mtorr. A plasma was then generated using radio frequency (RF) power inductively coupled into the chamber via annular electrodes at a power setting of 50 watts for 45 seconds. The contact angle of a drop of water placed on the surface of the plasma-treated membrane was about 40°. […]
To form the feed solution, a 1.2 mg sample of the dispersion was weighed into the feed reservoir. […] Samples were then diluted in 250 μL IPA and analyzed using HPLC. […]
The maximum flux of drug across the membrane (in units of μg/cm^2-min) was determined by performing a least-squares fit to the data from 0 to 60 minutes to obtain the slope, multiplying the slope by the permeate volume (5 mL), and dividing by the membrane area (4.9 cm^2). […]

[3] = Aqueous solubility of the drugs used in the examples; conditions: water
[4] = Microcentrifuge dissolution test in MFD solution, crystallization inhibition (Example 5); assay type: physicochemical; conditions: 37° C.
Experimental: First, Dispersions 12 and 13 were evaluated in an in vitro dissolution test using the microcentrifuge method described in Example 1 except that 2.04 mg of the dispersions were separately added to microcentrifuge tubes in duplicate. A 1.8-mL sample of a model fasted duodenal (MFD) solution was then added to the tube and the samples were quickly mixed using a vortex mixer for about 90 seconds. The theoretical maximum concentration of drug if all the drug dissolved was about 100 μgA/mL, where “μgA” refers to the active micrograms of Drug 5. Samples were collected and analyzed by HPLC using a Kromasil C4 column (250 mm×4.6 mm). The mobile phase consisted of 0.2 vol % H3PO4/acetonitrile in a volume ratio of 45/55. Drug concentration was calculated by comparing UV absorbance at 245 nm to the absorbance of Drug 5 standards.
As a control, […] of Drug 5 (in the HCl salt form) was added to a separate microcentrifuge tube so that the concentration of drug if all of the drug had dissolved would have been about 200 μgA/mL. […] The MDC90 values provided by Dispersions 12 and 13 were 3.5-fold and 3.0-fold that of the crystalline Drug 5 control, while the AUC90 values were 2.6-fold and 2.7-fold that of the crystalline control. Furthermore, the concentration of dissolved Drug 5 after 1200 minutes (C1200) was higher for Dispersions 12 and 13 than the crystalline control, with Dispersions 12 and 13 providing C1200 values that were 1.7- and 1.4-fold that of the crystalline control, respectively.

[5] = Solubility of drug in polymer by double-scan DSC (Example 3); assay type: physicochemical
Experimental: The solubilities of drug in HPMCAS polymers were determined using a double-scan differential scanning calorimetry (DSC) analysis of the dispersions as follows. The DSC analysis was carried out on either a TA Instruments DSC2920 or a Mettler DSC 821, calibrated with indium. DSC samples were prepared by weighing 2-4 mg of the dispersion in an aluminum pan with a pinhole. The sample was heated under nitrogen, at a rate of 5° C. per minute from about −20° C. to about 140° C. […] Heating above the Tg allows the drug to phase separate from the dispersion if the drug solubility in the polymer is lower than the drug loading.
The sample was then cooled and the sample was scanned a second time using the procedures outlined above. […] The amount of phase separated amorphous drug was estimated by comparing the magnitude of the heat capacity for the phase separated amorphous drug with the heat capacity for pure amorphous drug controls. […]

Compound: CC[C@@H]1C[C@H](N(Cc2cc(C(F)(F)F)cc(C(F)(F)F)c2)C(=O)OC)c2cc(C(F)(F)F)ccc2N1C(=O)OC(C)C [Crystalline Drug 3, [2R,4S]4-[(3,5-bis-trifluoromethyl-benzyl)-methoxycarbonyl-amino]-2-ethyl-6-trifluoromethyl-3,4-dihydro-2H-quinoline-1-carboxylic acid isopropyl ester]
- AUC90 [1]: <88 min-μg/mL
- C1200 [1]: <1 µg/mL
- MDC,90 [1]: <1 µg/mL

Compound: CCOC(=O)N1c2ccc(C(F)(F)F)cc2[C@@H](N(Cc2cc(C(F)(F)F)cc(C(F)(F)F)c2)C(=O)OC)C[C@H]1CC [Crystalline Drug 1, [2R,4S]4-[(3,5-bis-trifluoromethyl-benzyl)-methoxycarbonyl-amino]-2-ethyl-6-trifluoromethyl-3,4-dihydro-2H-quinoline-1-carboxylic acid ethyl ester]
- AUC90 [1]: <88 min-μg/mL
- C1200 [1]: <1 µg/mL
- MDC,90 [1]: <1 µg/mL
- Maximum Flux of Drug 1 ([2]; feed solution 0.5% NaTC/POPC (MFD), permeate 20 wt % decanol in decane): 0.076 μg/cm^2-min
- Maximum Flux of Drug 1 ([2]; feed solution 2.0 wt % NaTC/POPC (fed state model)): 0.13 μg/cm^2-min

Compound: CC[C@@H]1C[C@H](N(Cc2cc(C(F)(F)F)cc(C(F)(F)F)c2)C(C)=O)c2cc(C(F)(F)F)ccc2N1C(=O)OC(C)C [Drug 2, [2R,4S]4-[acetyl-(3,5-bis-trifluoromethyl-benzyl)-amino]-2-ethyl-6-trifluoromethyl-3,4-dihydro-2H-quinoline-1-carboxylic acid isopropyl ester]
- solubility [3]: < 1 µg/mL

Compound: CCc1cc(Oc2cccc(N(Cc3cccc(OC(F)(F)C(F)F)c3)C[C@@H](O)C(F)(F)F)c2)ccc1Cl [Drug 4, (2R)-3-[[3-(4-chloro-3-ethylphenoxy)phenyl][[3-(1,1,2,2-tetrafluoroethoxy)phenyl]methyl]amino]-1,1,1-trifluoro-2-propanol]
- solubility [3]: < 1 µg/mL

Compound: O=C1Cc2cc(CCN3CCN(c4nsc5ccccc45)CC3)c(Cl)cc2N1 [Crystalline Drug 5]
- AUC90 [4]: 1,700 min-μg/mL
- MDC,90 [4]: 22 µg/mL
- C1200 ([4]; 1200 minutes): 9 µg/mL

Compound: CC[C@@H]1C[C@H](N(Cc2cc(C(F)(F)F)cc(C(F)(F)F)c2)C(=O)OC)c2cc(C(F)(F)F)ccc2N1C(=O)OC(C)C [Drug 3, [2R,4S]4-[(3,5-bis-trifluoromethyl-benzyl)-methoxycarbonyl-amino]-2-ethyl-6-trifluoromethyl-3,4-dihydro-2H-quinoline-1-carboxylic acid isopropyl ester]
- solubility [3]: < 1 µg/mL

Compound: CCOC(=O)N1c2ccc(C(F)(F)F)cc2[C@@H](N(Cc2cc(C(F)(F)F)cc(C(F)(F)F)c2)C(=O)OC)C[C@H]1CC [Drug 1, [2R,4S]4-[(3,5-bis-trifluoromethyl-benzyl)-methoxycarbonyl-amino]-2-ethyl-6-trifluoromethyl-3,4-dihydro-2H-quinoline-1-carboxylic acid ethyl ester]
- solubility of the drug in the polymer ([5]; in the H grade of HPMCAS): 35-40 wt %
- solubility of the drug in the polymer ([5]; in the M grade of HPMCAS): 25 to 30 wt %
- solubility [3]: < 0.04 µg/mL

Compound: O=C1Cc2cc(CCN3CCN(c4nsc5ccccc45)CC3)c(Cl)cc2N1 [Drug 5]
- solubility [3]: < 0.1 µg/mL and ~10 µg/mL
